# From patent publication US20250003877A1, “Silyl Bridged Dyes” (priority 2021, published 2025)
# Read-outs that look alike come from different tables or passages of the source.
# Key:
# [1] = test system: HaloTag®-GFP-expressing HeLa cells; test: No-wash live cell imaging of HaloTag-expressing cells with a Si-bridge dye; assay type: cell-based; conditions: 200 nM dye, 15 min, 37° C., HeLa transfected with pHaloTag®-EGFP
# Experimental: HeLa cells were seeded in 35 mm glass bottom dishes (Cellvis, catalog no. D35-28-O—N), and transfected with pHaloTag®-EGFP (Addgene #86629). Transient transfections were performed using Lipofectamine 2000 (Invitrogen, catalog no. 1168019) following the manufacturer's instructions. HeLa cell labeling and confocal imaging were performed 24 hr after transfection.
# Labeling with JF646-HaloTag® ligand (Promega) and new dyes containing HaloTag® ligands were performed following the manufacturer's instructions. Briefly, cells were incubated with 200 nM dye in DMEM for 15 min at 37° C. Subsequently, images were obtained on a Leica SP-8 Confocal Microscope (SCOPE core facility, UMass Medical School), using a 40×1.15 Oil DIC objective. EGFP was excited with the Argon (488 nm) laser at a 15% intensity and detected through a 505-530 band pass filter and a pinhole set to 53.12 μm. Dyes fluorescing in the Cy5 channel were excited with the HeNe (633 nm) laser at a 15% intensity and detected through a 640-615 band pass filter and […] pinhole. Image analysis was performed using Leica LAS X SP8 software and ImageJ software.
# [2] = for ϕ (quantum yield): pH 7.4; for Brightness (ϕ × ε): ϕ in PBS × ε in EtOH/0.1% TFA
# [3] = test system: hairpin DNA oligonucleotide (hpDNA); test: Photophysical properties after 2 h treatment with hairpin DNA (hpDNA); assay type: physicochemical; conditions: for Brightness (ε × ϕ) / ε (M^−1 cm^−1) / λem (nm) / λex (nm) / ϕ: +30 μM hpDNA, 2 h; for brightness: in the presence of 30 μM hpDNA
# Experimental: Absorption and fluorescence spectra were measured on a Horiba Duetta fluorescence and absorbance spectrometer in quartz cuvettes (Starna Cells, catalog #3-Q-10). Extinction coefficients were calculated from plots of absorption versus concentration. Quantum yields were measured on a Hamamatsu Quantaurus QY C-11347-11 absolute quantum yield integrating sphere spectrometer at absorption values of <0.1 in side-arm quartz cuvettes (Hamamatsu cat #A10095-02). All measurements were performed in PBS (9.0 g/l NaCl, 0.795 g/l Na2HPO4, 0.144 g/l KH2PO4, pH 7.4, Corning cat #21-040-CV), ethanol, or 0.1% TFA/ethanol and prepared from stock solutions of dyes in DMSO, with final DMSO <1%. […] Selected KLZ values were determined in 1:1 v/v dioxane:water as previously described.
# Spirolactonizable Si-rhodamines are particularly valuable for live cell imaging. They typically exist in a nonfluorescent, neutral cell-permeable form that can convert to a highly fluorescent form when bound to particular targets, such as DNA or the protein HaloTag®. This fluorogenic response occurs when the nonfluorescent spirolactone ring opens, generating a zwitterionic dye (Scheme 12). To date, all examples of fluorogenic Si-rhodamine dyes have been modified with targeting groups directly on the pendant phenyl ring that forms the spirolactone. It is not obvious whether this same fluorogenic behavior would also occur with dyes that are modified with targeting groups on the more distal silyl group. SiR-DNA (Spirochrome) is a commercially-available Si-rhodamine dye with the DNA-targeting ligand Hoechst 33258 attached to the pendant phenyl ring (Schemes 13A-C), allowing specific labeling of the nucleus in live cells. Therefore, two Hoechst 33258-modified Si-Bridge isomers were synthesized via direct reaction of the phenol of Hoechst 33258 with the isomeric Si-iodopropyl dyes compounds 047 and 048 (Scheme 6), and then assessed their ability to label the nucleus in live HeLa cells compared to SiR-DNA (FIGS. 2A-2C). […] To gain more insight into the molecular basis for this difference, the photophysical properties of compounds 061 and 062 were evaluated in vitro in the presence and absence of a hairpin DNA oligonucleotide (hpDNA) (Table 4). Like SiR-DNA, these dyes are quenched and virtually nonfluorescent in PBS, with quantum yields <0.02 and brightness of <130 M^−1 cm^−1.
# [4] = test system: nucleus in live HeLa cells; test: No-wash live cell imaging of the nucleus with a Si-bridge dye; assay type: cell-based; conditions: confocal, Cy5 channel
# Experimental: HeLa cells were cultured in Dulbecco's modified Eagle medium (DMEM, from GIBCO, catalog no. 11995065) supplemented with 10% fetal bovine serum (FBS) (GIBCO, catalog no. 10437028) and 1% penicillin-streptomycin (Sigma) at 37° C. in a 5% CO2 incubator. For imaging, cells were seeded in 35 mm glass bottom dishes (Cellvis, catalog no. D35-28-O—N). […] Dyes fluorescing in the Cy5 channel were excited with the HeNe (633 nm) laser at a 15% intensity and detected through a 640-615 band pass filter, and EGFP was excited with the Argon (488 nm) laser. Image analysis was performed using Leica LAS X SP8 software and ImageJ software.
# [5] = KL-Z lactone-zwitterion equilibrium; assay type: physicochemical; conditions: 1:1 v/v dioxane:water
# [6] = spirolactone dyes, table title says PBS, text (b560-b564) says maximal ε when ring-opened in EtOH/0.1% TFA
smiles,measurement,setting,value
"CN(C)c1ccc2c(c1)[Si@](C)(CCCSCC(=O)NCCOCCOCCCCCCCl)c1cc(N(C)C)ccc1[C@]21OC(=O)c2ccccc21 [Compound 044, 2-((3-((5s,10s)-3,7-Bis(dimethylamino)-5-methyl-3′-oxo-3′H,5H-spiro[dibenzo[b,e]siline-10,1′-isobenzofuran]-5-yl)propyl)thio)-N-(2-(2-((6-chlorohexyl)oxy)ethoxy)ethyl)acetamide]",fluorescence contrast / background / localisation in cells,[1],poorly fluorescent in all cells
same,labeling of HaloTag®-expressing cells,[1],did not label HaloTag®-expressing cells
"COc1cccc(OC)c1C1=C2C=CC(=[N+](C)C)C=C2[Si@](C)(CCCSCCOCCOCCOCCOCCCCCCCl)c2cc(N(C)C)ccc21 [Compound 049, N-(5-(22-Chloro-7,10,13,16-tetraoxa-4-thiadocosyl)-10-(2,6-dimethoxyphenyl)-7-(dimethylamino)-5-methyldibenzo[b,e]silin-3(5H)-ylidene)-N-methylmethanaminium]",fluorescence contrast / background / localisation in cells,[1],only stained mitochondria
same,labeling of HaloTag®-expressing cells,[1],did not label HaloTag®-expressing cells
"CN1CCN(c2ccc3[nH]c(-c4ccc5[nH]c(-c6ccc(OCCC[Si@]7(C)c8cc(N(C)C)ccc8[C@]8(OC(=O)c9ccccc98)c8ccc(N(C)C)cc87)cc6)nc5c4)nc3c2)CC1 [Compound 061, (5s,10s)-3,7-Bis(dimethylamino)-5-methyl-5-(3-(4-(5-(4-methylpiperazin-1-yl)-1H,1′H-[2,5′-bibenzo[d]imidazol]-2′-yl)phenoxy)propyl)-3′H,5H-spiro[dibenzo[b,e]siline-10,1′-isobenzofuran]-3′-one]",Brightness (ε × ϕ),"[2]; 0.1% SDS/PBS, 2 h incubation","10,965"
same,ε (M^−1 cm^−1),"[2]; 0.1% SDS/PBS, 2 h incubation","25,500 M^−1cm^−1"
same,λem (nm),"[2]; 0.1% SDS/PBS, 2 h incubation",668 nm
same,λex (nm),"[2]; 0.1% SDS/PBS, 2 h incubation",650 nm
same,ϕ,"[2]; 0.1% SDS/PBS, 2 h incubation",0.43
same,Brightness (ε × ϕ),[2]; Hoechst probe in PBS,130
same,ε (M^−1 cm^−1),[2]; Hoechst probe in PBS,"6,500 M^−1cm^−1"
same,λex (nm),[2]; Hoechst probe in PBS,660 nm
same,ϕ,[2]; Hoechst probe in PBS,0.02
same,Brightness (ε × ϕ),[3],550
same,ε (M^−1 cm^−1),[3],"5,500 M^−1cm^−1"
same,λem (nm),[3],672 nm
same,λex (nm),[3],658 nm
same,ϕ,[3],0.10
same,brightness,[3],550 M⁻¹ cm⁻¹
same,labeling of the nucleus in live HeLa cells,[4],no labeling of the nucleus
"C[Si]1(C)c2cc(N3CCC3)ccc2C2(OC(=O)c3ccccc32)c2ccc(N3CCC3)cc21 [Compound 031, 3,7-Di(azetidin-1-yl)-5,5-dimethyl-3′H,5H-spiro[dibenzo[b,e]siline-10,1′-isobenzofuran]-3′-one, reference compound]",KL-Z lactone-zwitterion equilibrium value,[5],0.0034
same,Em (nm),[2]; PBS,664 nm
same,Ex (nm),[2]; PBS,646 nm
same,ϕ (quantum yield),[2]; PBS,0.45
same,ε (M^−1 cm^−1),[2]; [6],"156,000 M^−1 cm^−1"
same,Brightness (ϕ × ε),[2]; spirolactone dyes,"70,200"
C[Si]1(C)c2cc(N3CCC3)ccc2C2(OC(=O)c3ccc(C(=O)NCCOCCOCCCCCCCl)cc32)c2ccc(N3CCC3)cc21 [JF646-HaloTag® ligand],fluorescence contrast / background / localisation in cells,[1],high contrast images
"CN(C)c1ccc2c(c1)[Si@](C)(CCCSCCOCCOCCOCCOCCCCCCCl)c1cc(N(C)C)ccc1[C@@]21OC(=O)c2ccccc21 [Compound 051, (5r,10r)-5-(22-Chloro-7,10,13,16-tetraoxa-4-thiadocosyl)-3,7-bis(dimethylamino)-5-methyl-3′H,5H-spiro[dibenzo[b,e]siline-10,1′-isobenzofuran]-3′-one]",fluorescence contrast / background / localisation in cells,[1],significant background
same,labeling of HaloTag®-expressing cells,[1],labeled HaloTag®-expressing cells
"C=C[Si]1(C=C)c2cc(N3CCC3)ccc2C2(OC(=O)c3ccccc32)c2ccc(N3CCC3)cc21 [Compound 034, 3,7-Di(azetidin-1-yl)-5,5-divinyl-3′H,5H-spiro[dibenzo[b,e]siline-10,1′-isobenzofuran]-3′-one]",KL-Z lactone-zwitterion equilibrium value,[5],0.00125
same,extinction coefficient (maximum) in EtOH/0.1% TFA,[2]; EtOH/0.1% TFA,"80,000 M−1 cm−1"
same,Em (nm),[2]; SDS,675 nm
same,Ex (nm),[2]; SDS,656 nm
same,extinction coefficient in anhydrous EtOH/0.1% TFA,[2]; anhydrous EtOH/0.1% TFA,~144 000 M−1 cm-1
same,ε (M^−1 cm^−1),[2]; [6],"80,000 M^−1 cm^−1"
"CN(C)c1ccc2c(c1)[Si](C)(C)c1cc(N(C)C)ccc1C21OC(=O)c2ccccc21 [Compound 032, 3,7-Bis(dimethylamino)-5,5-dimethyl-3′H,5H-spiro[dibenzo[b,e]siline-10,1′-isobenzofuran]-3′-one, reference compound]",KL-Z lactone-zwitterion equilibrium value,[5],0.002
same,Em (nm),[2]; PBS,667 nm
same,Ex (nm),[2]; PBS,648 nm
same,ϕ (quantum yield),[2]; PBS,0.38
same,ε (M^−1 cm^−1),[2]; [6],"130,000 M^−1 cm^−1"
same,Brightness (ϕ × ε),[2]; spirolactone dyes,"49,400"
"CN1CCN(c2ccc3[nH]c(-c4ccc5[nH]c(-c6ccc(OCCC[Si@]7(C)c8cc(N(C)C)ccc8[C@@]8(OC(=O)c9ccccc98)c8ccc(N(C)C)cc87)cc6)nc5c4)nc3c2)CC1 [Compound 062, (5r,10r)-3,7-Bis(dimethylamino)-5-methyl-5-(3-(4-(5-(4-methylpiperazin-1-yl)-1H,1′H-[2,5′-bibenzo[d]imidazol]-2′-yl)phenoxy)propyl)-3′H,5H-spiro[dibenzo[b,e]siline-10,1′-isobenzofuran]-3′-one]",Brightness (ε × ϕ),"[2]; 0.1% SDS/PBS, 2 h incubation","64,770"
same,ε (M^−1 cm^−1),"[2]; 0.1% SDS/PBS, 2 h incubation","127,000 M^−1cm^−1"
same,λem (nm),"[2]; 0.1% SDS/PBS, 2 h incubation",670 nm
same,λex (nm),"[2]; 0.1% SDS/PBS, 2 h incubation",649 nm
same,ϕ,"[2]; 0.1% SDS/PBS, 2 h incubation",0.51
same,Brightness (ε × ϕ),[2]; Hoechst probe in PBS,90
same,ε (M^−1 cm^−1),[2]; Hoechst probe in PBS,"10,000 M^−1cm^−1"
same,λex (nm),[2]; Hoechst probe in PBS,663 nm
same,Brightness (ε × ϕ),[3],"10,400"
same,ε (M^−1 cm^−1),[3],"26,000 M^−1cm^−1"
same,λem (nm),[3],670 nm
same,λex (nm),[3],653 nm
same,ϕ,[3],0.40
same,brightness,[3],10 400 M^−1 cm^−1
same,extinction coefficient,[3]; in the presence of 30 mM hpDNA,26 000 M^−1 cm^−1
same,quantum yield,[3]; in the presence of 30 mM hpDNA,0.40
same,labeling of the nucleus in live HeLa cells,[4],"highly fluorogenic, labeling only the nucleus in live cells"
"CN(C)c1ccc2c(c1)[Si@](C)(CCCSCCOCCOCCOCCOCCCCCCCl)c1cc(N(C)C)ccc1[C@]21OC(=O)c2ccccc21 [Compound 050, (5s,10s)-5-(22-Chloro-7,10,13,16-tetraoxa-4-thiadocosyl)-3,7-bis(dimethylamino)-5-methyl-3′H,5H-spiro[dibenzo[b,e]siline-10,1′-isobenzofuran]-3′-one]",fluorescence contrast / background / localisation in cells,[1],high background
same,labeling of HaloTag®-expressing cells,[1],did not label HaloTag®-expressing cells
"CN(C)c1ccc2c(c1)[Si@](C)(CCCSCC(=O)NCCOCCOCCCCCCCl)c1cc(N(C)C)ccc1[C@@]21OC(=O)c2ccccc21 [Compound 045, 2-((3-((5r,10r)-3,7-Bis(dimethylamino)-5-methyl-3′-oxo-3′H,5H-spiro[dibenzo[b,e]siline-10,1′-isobenzofuran]-5-yl)propyl)thio)-N-(2-(2-((6-chlorohexyl)oxy)ethoxy)ethyl)acetamide]",fluorescence contrast / background / localisation in cells,[1],bright high contrast images that correlated strongly to GFP expression
